From patent US7919493B2, “Anititumoral ecteinascidin derivatives” (Pharma Mar, S.A., priority 2001, dated 2011)
Converted amounts (≈) assume the structure as drawn.

Tests used:
Format in all cases: cell-based
[1] = system: DU-145; test: Cytotoxic activity screening, DU-145 cells; conditions: for IC50: Homo sapiens, DU-145, DU-145 cells; for IC50 DU-145: DU-145 cells
Procedure: [The source words this procedure for another cell line and reports this cell line under the same test.] (§1) Cell Cultures. Cells were maintained in logarithmic phase of growth in Eagle's Minimum Essential Medium, with Earle's Balanced Salts, with 2.0 mM L-glutamine, with non-essential amino acids, without sodium bicarbonate (EMEM/neaa); supplemented with 10% Fetal Calf Serum (FCS), 10^−2 M sodium bicarbonate and 0.1 g/l penicillin-G+streptomycin sulfate.
(§2) A simple screening procedure has been carried out to determine and compare the antitumour activity of these compounds, using an adapted form of the method described by Bergeron et al (1984). The tumour cell line employed have been P-388 (suspension culture of a lymphoid neoplasm from DBA/2 mouse), A-549 (monolayer culture of a human lung carcinoma), HT-29 (monolayer culture of a human colon carcinoma) and MEL-28 (monolayer culture of a human melanoma).
Examples of biological activities of the compounds described in the present application are in Table IV (IC50 (ng/mL)) on the following pages.

[2] = system: P-388 (suspension culture of a lymphoid neoplasm from DBA/2 mouse); test: Cytotoxic activity screening, P-388 cells; conditions: three days of incubation, approximate IC50 vs control growth; for IC50: Mus musculus, P388, 72 h
Procedure: as §1, §2
P-388 cell were seeded into 16 mm wells at 1×10^4 cells per well in 1 ml aliquots of MEM 5FCS containing the indicated concentration of drug. A separate set of cultures without drug was seeded as control growth to ensure that cells remained in exponential phase of growth. All determinations were carried out in duplicate.

[3] = system: MEL-28 (monolayer culture of a human melanoma); test: Cytotoxic activity screening, MEL-28 cells; conditions: three days of incubation, Crystal Violet; for IC50: Homo sapiens, SK-MEL-28, 72 h
Procedure: as §1, §2
(§3) A-549, HT-29 and MEL-28 were seeded into 16 mm wells at 2×10^4 cells per well in 1 ml aliquots of MEM 10FCS containing the indicated concentration of drug. A separate set of cultures without drug was seeded as control growth to ensure that cells remained in exponential phase of growth. All determinations were carried out in duplicate. After three days of incubation at 37° C., 10% CO2 in a 98% humid atmosphere, the wells were stained with 0.1% Crystal Violet. An approximately IC50 was determined by comparing the growth in wells with drug to the growth in wells control.

[4] = system: A-549 (monolayer culture of a human lung carcinoma); test: Cytotoxic activity screening, A-549 cells; conditions: three days of incubation, Crystal Violet; for IC50: Homo sapiens, A549, 72 h
Procedure: as §1
as §3, with “A” for “A-549, HT-29 and MEL-28 were seeded into 16 mm wells at 2×10^4 cells per well in 1 ml aliquots of MEM 10FCS containing the indicated concentration of drug. A”

[5] = system: HT-29 (monolayer culture of a human colon carcinoma); test: Cytotoxic activity screening, HT-29 cells; conditions: three days of incubation, Crystal Violet; for IC50: Homo sapiens, HT-29, 72 h
Procedure: as §1
as §3, with “A” for “A-549, HT-29 and MEL-28 were seeded into 16 mm wells at 2×10^4 cells per well in 1 ml aliquots of MEM 10FCS containing the indicated concentration of drug. A”

[6] = system: HT29; test: Cytotoxic assay, sulforhodamine B (SRB), HT29; conditions: Homo sapiens, HT-29; HT29 cells, 48 hours exposure, SRB method
From the text: (§4) A colorimetric type of assay, using sulforhodamine B (SRB) reaction has been adapted for a quantitative measurement of cell growth and viability (following the technique described by Skehan P et al. J. Natl. Cancer Inst. 1990, 82, 1107-1112).
(§5) This form of assay employs 96-well cell culture microplates of 9 mm diameter (Faircloth et al. Methods in cell science, 1988, 11(4), 201-205; Mosmann et al, Journal of. Immunological. Methods, 1983, 65(1-2), 55-63). Most of the cell lines are obtained from American Type Culture Collection (ATCC) derived from different human cancer types. Cells are maintained in RPMI 1640 10% FBS, supplemented with 0.1 g/L penicillin and 0.1 g/l streptomycin sulfate and then incubated at 37° C., 5% CO2 and 98% humidity. For the experiments, cells were harvested from subconfluent cultures using trypsin and resuspended in fresh medium before counting and plating.
(§6) Cells were seeded in 96 well microtiter plates at 5×10^3 cells per well in aliquots of 195 μL medium, and allowed to attach to the plate surface for 18 hours in drug free medium. Afterwards, samples are in aliquots of 5 μL in a ranging from 10 to 10-8 μg/mL dissolved in DMSO/ETOH (0.2% in PS buffer). After 48 hours exposure, the antitumor effect are measured by the SRB method: cells are fixed by adding 50 μL of cold 50% (w/v) trichloroacetic acid and incubating for 60 minutes at 4° C. Plates are washed with deionised water and dried. 100 μL of SRB solution (0.4% w/v in 1% acetic acid) is added to each microtiter well and incubated for 10 minutes at room temperature. Unbound SRB is removed by washing with 1% acetic acid. Plates are air-dried and bound stain is solubilized with Tris Buffer. Optical densities are read on an automated spectrophotometric plate reader at a single wavelength of 490 nm.
(§7) The values for mean ±SD of data from triplicate wells are calculated. GI50 (concentration that produces 50% growth inhibition) parameter was calculated (NCI algorithm) by automatic interpolation.

[7] = system: A549; test: Cytotoxic assay, sulforhodamine B (SRB), A549; conditions: Homo sapiens; A549 cells, 48 hours exposure, SRB method
From the text: as §4, §5, §6, §7

[8] = approximate IC50, listed as 18a*

SMILES | IC50 [1] [ng/mL] | IC50 [2] [ng/mL] | IC50 ([3]; approximate IC50) [ng/mL] | IC50 ([4]; approximate IC50) [ng/mL] | IC50 ([5]; approximate IC50) [ng/mL] | further results
COc1c(C)cc2c(c1O)[C@@H]1C3[C@@H]4SC[C@H](NC(=O)C(C)NC(=O)/C=C/c5ccccc5)C(=O)OC[C@@H](c5c6c(c(C)c(OC(C)=O)c54)OCO6)N3[C@@H](O)[C@H](C2)N1C (some centres unmarked) [Compound 4x] | 1 (≈ 1.23 nM) | 1 (≈ 1.23 nM) | 1 (≈ 1.23 nM) | 1 (≈ 1.23 nM) | 1 (≈ 1.23 nM) | 
COC(=O)c1ccccc1C(=O)N[C@H]1CS[C@@H]2c3c(OC(C)=O)c(C)c4c(c3[C@H](COC1=O)N1C2[C@H]2c3c(cc(C)c(OC)c3O)C[C@@H]([C@@H]1C#N)N2C)OCO4 (some centres unmarked) [Compound 6] | 1 (≈ 1.27 nM) | 1 (≈ 1.27 nM) | 1 (≈ 1.27 nM) | 1 (≈ 1.27 nM) | 1 (≈ 1.27 nM) | 
COc1c(C)cc2c(c1O)[C@@H]1C3[C@@H]4SC[C@H](O)C(=O)OC[C@@H](c5c6c(c(C)c(OC(C)=O)c54)OCO6)N3[C@@H](C#N)[C@H](C2)N1C (some centres unmarked) [Compound 15] | 5 (≈ 8.02 nM) | 5 (≈ 8.02 nM) | 5 (≈ 8.02 nM) | 5 (≈ 8.02 nM) | 5 (≈ 8.02 nM) | 
COc1c(C)cc2c(c1O)[C@@H]1[C@@H]3[C@@H]4SC[C@H](NC(=O)[C@@H]5CCCN5C(=O)OC(C)(C)C)C(=O)OC[C@@H](c5c6c(c(C)c(OC(C)=O)c54)OCO6)N3[C@@H](C#N)[C@H](C2)N1C [Compound 15b] |  |  |  |  |  | GI50 [6]: 3.66 nM; GI50 [7]: 7.32 nM
COc1c(C)cc2c(c1O)[C@@H]1[C@@H]3[C@@H]4SC[C@H](NC(=O)c5cnn(-c6ccccc6)c5C(F)(F)F)C(=O)OC[C@@H](c5c6c(c(C)c(OC(C)=O)c54)OCO6)N3[C@@H](C#N)[C@H](C2)N1C [Compound 15d] |  |  |  |  |  | GI50 [6]: 10.1 nM; GI50 [7]: 14.6 nM
COc1c(C)cc2c(c1O)[C@@H]1[C@@H]3[C@@H]4SC[C@H](NC(=O)[C@@H]5CCCN5)C(=O)OC[C@@H](c5c6c(c(C)c(OC(C)=O)c54)OCO6)N3[C@@H](C#N)[C@H](C2)N1C [Compound 15f] |  |  |  |  |  | GI50 [6]: 0.278 nM; GI50 [7]: 2.78 nM
COc1c(C)cc2c(c1O)[C@@H]1C3[C@@H]4SC[C@@H](OC(C)=O)C(=O)OC[C@@H](c5c6c(c(C)c(OC(C)=O)c54)OCO6)N3[C@@H](C#N)[C@H](C2)N1C (some centres unmarked) [Compound 17a] |  |  |  |  |  | IC50 DU-145 [1]: 0.1 ng/mL (≈ 0.15 nM); IC50 P-388 [2]: 0.1 ng/mL (≈ 0.15 nM); IC50 MEL-28 ([3]; approximate IC50): 0.1 ng/mL (≈ 0.15 nM); IC50 A-549 ([4]; approximate IC50): 0.1 ng/mL (≈ 0.15 nM); IC50 HT-29 ([5]; approximate IC50): 0.1 ng/mL (≈ 0.15 nM)
COc1c(C)cc2c(c1O)[C@@H]1C3[C@@H]4SC[C@H](OC(=O)C(F)(F)F)C(=O)OC[C@@H](c5c6c(c(C)c(OC(C)=O)c54)OCO6)N3[C@@H](C#N)[C@H](C2)N1C (some centres unmarked) [Compound 17b] | 5 (≈ 6.95 nM) | 5 (≈ 6.95 nM) | 5 (≈ 6.95 nM) | 5 (≈ 6.95 nM) | 5 (≈ 6.95 nM) | 
CCCC(=O)O[C@H]1CS[C@@H]2c3c(OC(C)=O)c(C)c4c(c3[C@H](COC1=O)N1C2[C@H]2c3c(cc(C)c(OC)c3O)C[C@@H]([C@@H]1C#N)N2C)OCO4 (some centres unmarked) [Compound 17c] | 1 (≈ 1.44 nM) | 1 (≈ 1.44 nM) | 1 (≈ 1.44 nM) | 1 (≈ 1.44 nM) | 1 (≈ 1.44 nM) | 
CCCCCCCC(=O)O[C@H]1CS[C@@H]2c3c(OC(C)=O)c(C)c4c(c3[C@H](COC1=O)N1C2[C@H]2c3c(cc(C)c(OC)c3O)C[C@@H]([C@@H]1C#N)N2C)OCO4 (some centres unmarked) [Compound 17e] | 1 (≈ 1.33 nM) | 1 (≈ 1.33 nM) | 1 (≈ 1.33 nM) | 1 (≈ 1.33 nM) | 1 (≈ 1.33 nM) | 
CCCCCCCCCCCCCCCC(=O)O[C@H]1CS[C@@H]2c3c(OC(C)=O)c(C)c4c(c3[C@H](COC1=O)N1C2[C@H]2c3c(cc(C)c(OC)c3O)C[C@@H]([C@@H]1C#N)N2C)OCO4 (some centres unmarked) [Compound 17f] | > 1000 | > 1000 | > 1000 | > 1000 | > 1000 | 
COc1c(C)cc2c(c1O)[C@@H]1C3[C@@H]4SC[C@H](OC(=O)/C=C/c5ccccc5)C(=O)OC[C@@H](c5c6c(c(C)c(OC(C)=O)c54)OCO6)N3[C@@H](C#N)[C@H](C2)N1C (some centres unmarked) [Compound 17h] | 0.1 (≈ 0.133 nM) | 0.1 (≈ 0.133 nM) | 0.1 (≈ 0.133 nM) | 0.1 (≈ 0.133 nM) | 0.1 (≈ 0.133 nM) | 
COc1c(C)cc2c(c1O)[C@@H]1C3[C@@H]4SC[C@@H](OC(C)=O)C(=O)OC[C@@H](c5c6c(c(C)c(OC(C)=O)c54)OCO6)N3[C@@H](C#N)[C@H](C2)N1C (some centres unmarked) [Compound 18a*] |  |  |  |  |  | IC50 DU-145 ([1]; listed as 18a*): 1.0 ng/mL (≈ 1.5 nM); IC50 P-388 ([2]; listed as 18a*): 1.0 ng/mL (≈ 1.5 nM); IC50 MEL-28 [3, 8]: 1.0 ng/mL (≈ 1.5 nM); IC50 A-549 [4, 8]: 1.0 ng/mL (≈ 1.5 nM); IC50 HT-29 [5, 8]: 1.0 ng/mL (≈ 1.5 nM)
COc1c(C)cc2c(c1O)[C@@H]1C3[C@@H]4SC[C@H](O)C(=O)OC[C@@H](c5c6c(c(C)c(OC(C)=O)c54)OCO6)N3[C@@H](O)[C@H](C2)N1C (some centres unmarked) [Compound 19] | 1 (≈ 1.63 nM) | 1 (≈ 1.63 nM) | 1 (≈ 1.63 nM) | 1 (≈ 1.63 nM) | 1 (≈ 1.63 nM) | 
COc1c(C)cc2c(c1O)[C@@H]1C3[C@@H]4SC[C@@H](OC(C)=O)C(=O)OC[C@@H](c5c6c(c(C)c(OC(C)=O)c54)OCO6)N3[C@@H](O)[C@H](C2)N1C (some centres unmarked) [Compound 21a] | 1 (≈ 1.52 nM) | 0.5 (≈ 0.761 nM) | 1 (≈ 1.52 nM) | 1 (≈ 1.52 nM) | 1 (≈ 1.52 nM) | 
CCCC(=O)O[C@H]1CS[C@@H]2c3c(OC(C)=O)c(C)c4c(c3[C@H](COC1=O)N1C2[C@H]2c3c(cc(C)c(OC)c3O)C[C@@H]([C@@H]1O)N2C)OCO4 (some centres unmarked) [Compound 21c] | 1 (≈ 1.46 nM) | 1 (≈ 1.46 nM) | 1 (≈ 1.46 nM) | 1 (≈ 1.46 nM) | 1 (≈ 1.46 nM) | 
CCCCCCCC(=O)O[C@H]1CS[C@@H]2c3c(OC(C)=O)c(C)c4c(c3[C@H](COC1=O)N1C2[C@H]2c3c(cc(C)c(OC)c3O)C[C@@H]([C@@H]1O)N2C)OCO4 (some centres unmarked) [Compound 21e] | 1 (≈ 1.35 nM) | 1 (≈ 1.35 nM) | 1 (≈ 1.35 nM) | 1 (≈ 1.35 nM) | 1 (≈ 1.35 nM) | 
COc1c(C)cc2c(c1O)[C@@H]1C3[C@@H]4SC[C@H](OC(=O)/C=C/c5ccccc5)C(=O)OC[C@@H](c5c6c(c(C)c(OC(C)=O)c54)OCO6)N3[C@@H](O)[C@H](C2)N1C (some centres unmarked) [Compound 21h] | 1 (≈ 1.34 nM) | 1 (≈ 1.34 nM) | 1 (≈ 1.34 nM) | 1 (≈ 1.34 nM) | 1 (≈ 1.34 nM) | 
COc1c(C)cc2c(c1O)[C@@H]1C3[C@@H]4SC[C@H](OS(C)(=O)=O)C(=O)OC[C@@H](c5c6c(c(C)c(OC(C)=O)c54)OCO6)N3[C@@H](O)[C@H](C2)N1C (some centres unmarked) [Compound 21ll] | 1 (≈ 1.44 nM) | 1 (≈ 1.44 nM) | 1 (≈ 1.44 nM) | 1 (≈ 1.44 nM) | 1 (≈ 1.44 nM) | 
